Tests used:
[1] = target: GRP78 (Homo sapiens, UniProt P11021); assay: Fluorescence polarization FITC-NRLLLTG peptide; details: peptide binding assay, 8-point dose responses
[2] = system: HCT116 cells; assay: Unfolded protein response markers by immunoblot; type: cell-based; details: 16 hours, three concentrations
[3] = system: HCT116 cells; assay: Annexin V / propidium iodide flow cytometry; type: cell-based

Chain of GRP78 (P11021 26-636): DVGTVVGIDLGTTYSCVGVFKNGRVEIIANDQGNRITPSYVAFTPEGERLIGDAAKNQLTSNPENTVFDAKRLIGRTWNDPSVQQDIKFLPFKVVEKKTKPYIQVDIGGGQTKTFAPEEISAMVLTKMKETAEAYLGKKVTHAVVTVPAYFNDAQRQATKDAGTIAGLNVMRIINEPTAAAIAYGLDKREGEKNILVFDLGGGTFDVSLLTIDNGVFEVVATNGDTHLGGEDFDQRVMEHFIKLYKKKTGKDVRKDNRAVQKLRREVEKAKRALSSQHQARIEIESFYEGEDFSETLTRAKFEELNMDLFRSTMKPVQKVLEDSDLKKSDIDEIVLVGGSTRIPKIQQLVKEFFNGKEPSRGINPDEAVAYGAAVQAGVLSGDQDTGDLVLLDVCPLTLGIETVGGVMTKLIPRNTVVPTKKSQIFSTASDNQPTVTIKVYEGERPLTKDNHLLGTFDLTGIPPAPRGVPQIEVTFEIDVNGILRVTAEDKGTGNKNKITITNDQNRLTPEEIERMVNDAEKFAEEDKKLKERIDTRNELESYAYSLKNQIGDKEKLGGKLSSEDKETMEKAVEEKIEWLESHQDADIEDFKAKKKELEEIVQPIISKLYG

Compound | GRP78 inhibition, SAR result in words [1] | further results
CCc1cc(Cc2cc(CC)cc(C(C)(C)C)c2O)c(O)c(C(C)(C)C)c1 [compound 8] | not tolerated | –
Oc1ccc(Cl)cc1Cc1cc(Cl)ccc1O [compound 5] | inactive | –
O=C(Nc1cc(Cl)cc(Cl)c1O)c1c(O)c(Cl)cc(Cl)c1Cl [compound 9] | not tolerated | –
Cc1cc(Cc2cc(C)cc(C(C)(C)C)c2O)c(O)c(C(C)(C)C)c1 [compound 10] | not tolerated | –
Oc1c(Cl)cc(Cl)c(Cl)c1Sc1c(O)c(Cl)cc(Cl)c1Cl [compound 2] | tolerated | –
Oc1c(Cl)cc(Cl)c(Cl)c1Cc1c(O)c(Cl)cc(Cl)c1Cl [hexachlorophene] | – | induction of UPR markers (XBP1s, ATF4, CHOP) [2]: dose dependent induction; percentage of apoptotic cells (annexin V staining only) versus Taxol control ([3]; 10 μM, 24 hours): same percentage of apoptotic cells; percentage of apoptotic cells versus Taxol control ([3]; 25 μM, 24 hours): larger percentage of apoptotic cells than the Taxol control; mechanism of cell death ([3]; 5, 10, or 25 μM, dose and time course): apoptotic cell death in a dose (Figure 6A) and time (Figure 6B) dependent manner; time of peak early apoptosis (annexin V positive and PI negative) ([3]; time course): about 24 hours; time of peak late stage apoptosis (Annexin V and PI positive) ([3]; time course): 36 h
Oc1ccccc1Cc1ccccc1O [compound 7] | inactive | –
Oc1cc(Cl)ccc1Oc1ccc(Cl)cc1Cl [compound 6] | not tolerated | –
